Key:
YAP target genes = assay: RNA-seq global gene expression profiles in SF268 cells; type: cell-based, human; conditions: 20 μM, 24 h
Description: FIG. 7E illustrates SF268 cells treated with EVG were subjected to RNA-seq analysis. GSEA enrichment plots of genes involved in Hippo/YAP signaling.
Total RNA of three biological replicates was extracted from SF268 cells 24 h after treated with 20 μM EVG/DMSO using TRIzol™ Reagent (15596018, Invitrogen). RNAseq libraries were prepared using the Illumina TruSeq RNA Sample Prep kit v2 and sequenced using the Illumina HiSeq Xten platform (150-bp paired-end reads). We mapped the RNA-seq sequencing reads to the human reference transcriptome (GRCh37.71) using HISAT259 version 2.0.1. Differentially expressed genes in elvitegravir-treatment group were identified with the R package DESeq.

H3K27ac = assay: Immunofluorescence of H3K27ac at TEAD puncta in H1299 cells; type: cell-based; conditions: H1299 cells co-expressing YAP5SA, TEAD4-mTagBFP, mNeoGreen-SRC1; 20 μM
Description: FIG. 7 M illustrates immunofluorescence staining with anti-H3K27ac (red,top) and anti-RNA pol II-S5P (red, bottom) in H1299 cells co-expressing YAP5SA, TEAD4-mTagBFP(blue) and mNeoGreen-SRC1(green) treated with 20 μM EVG. EVG impaired the SRC-1 LLPS. Transcription active markerH3K27ac and active RNA polymerase II phosphorylated at Ser 5 of CTD were not enriched in SRC-1 condensates. Scale bar, 5 μm.
Cells were fixed with 4% PFA for 15 minutes at room temperature. Cells were subsequently washed with PBS (3×3 min) and blocked in PBS/BSA (3%)/Triton X-100 (0.3%) at room temperature for 60 minutes. Cells were rinsed in PBS and incubated with anti-H3K27ac (ab4729, Abcam, 1:100), anti-RNA Pol II-S5P antibody (#04-1572, Millipore, 1:200) in PBS/BSA (1%) overnight at 4° C. Cells were washed with PBST (1×PBS+Tween20 0.2%, 3×5 min) and incubated with the secondary antibody for 1 hours at room temperature. After washing with PBST(3×5 min), cells were stained with DAPI.

COc1cc2c(cc1Cc1cccc(Cl)c1F)c(=O)c(C(=O)O)cn2[C@H](CO)C(C)C [EVG, 6-[(3-chloro-2-fluorophenyl)methyl]-1-[(2S)-1-hydroxy-3-methylbutan-2-yl]-7-methoxy-4-oxoquinoline-3-carboxylic acid]
YAP target genes, global gene expression profiles (YAP target genes): downregulates
enrichment of H3K27ac at TEAD puncta (H3K27ac): inhibited the enrichment
